From patent publication US6677466B1, “Method for stabilizing hydrogen peroxide” (DSM Fine Chemicals Austria NFG GmbH & Co KG, priority 1999, dated 2004)

Assay: O2 evolution from [Mn2O3{Me3tacn}2](PF6)2-catalysed decomposition of H2O2 with stabilizer
Assay type: physicochemical
Protocol: A 50% strength aqueous solution of H2O2 (304 mg; 4.46 mmol) was added to 454 mg (4.46 mmol) of methyl pyruvate and to 535 mg (4.46 mmol) of glyoxylic methyl ester methyl hemiacetal, respectively. In the case of methyl pyruvate, a marked evolution of heat was discovered during the addition. After one hour, the H2O2/α-keto ester mixture was mixed with 1 ml of solvent and added to a suspension of 1.0 mg of [Mn2O3{Me3tacn}2](PF6)2 catalyst in 4 ml of solvent. The suspension was introduced into a 50 ml flask which was maintained at room temperature in a water bath. As a result of this addition, in cases where undissolved catalyst was still present, the catalyst dissolved completely.
As a comparison, a suspension of 1.0 mg of [Mn2O3{Me3tacn}2](PF6)2 catalyst in 4 ml of solvent was combined with a 50% strength aqueous solution of H2O2 (304 mg; 4.46 mmol) and 1 ml of solvent without stabilizer.
The amount of oxygen which was evolved from the decomposition of the hydrogen peroxide was determined as a function of time using a Brooks meter, which permitted measurement of the gas flow and the total amount of evolved gas.

Measured: O2 evolution V(O2) (Vmax(O2)*100%)

COC(=O)C(O)OC (stereo not drawn) [GMHA, glyoxylic methyl ester methyl hemiacetal]
9%: solv. acetone, t 60 min | solv. ethyl acetate, t 20 min | solv. ethyl acetate, t 25 min | solv. ethyl acetate, t 30 min | solv. ethyl acetate, t 35 min | solv. ethyl acetate, t 40 min | solv. ethyl acetate, t 50 min | solv. ethyl acetate, t 60 min | solv. ethyl acetate, t 70 min | solv. ethyl acetate, t 80 min
8%: solv. ethyl acetate, t 15 min
4%: solv. ethyl acetate, t 10 min
1%: solv. methanol, t 5 min | solv. methanol, t 10 min | solv. methanol, t 15 min | solv. methanol, t 20 min | solv. methanol, t 25 min | solv. methanol, t 30 min | solv. methanol, t 35 min | solv. methanol, t 40 min | solv. methanol, t 50 min | solv. methanol, t 60 min | solv. methanol, t 70 min | solv. methanol, t 80 min
12%: solv. acetone, t 70 min | solv. acetone, t 80 min
2%: solv. acetic acid, t 10 min
3%: solv. acetic acid, t 15 min | solv. acetic acid, t 20 min | solv. acetic acid, t 25 min | solv. acetic acid, t 30 min | solv. acetic acid, t 35 min | solv. acetic acid, t 40 min | solv. acetic acid, t 50 min | solv. acetic acid, t 60 min | solv. acetic acid, t 70 min | solv. acetic acid, t 80 min
0%: solv. acetic acid, t 5 min | solv. acetone, t 5 min | solv. acetone, t 10 min | solv. acetone, t 15 min | solv. acetone, t 20 min | solv. acetone, t 25 min | solv. acetone, t 30 min | solv. acetone, t 35 min | solv. acetone, t 40 min | solv. acetone, t 50 min | solv. acetonitrile, t 5 min | solv. acetonitrile, t 10 min | solv. acetonitrile, t 15 min | solv. acetonitrile, t 20 min | solv. acetonitrile, t 25 min | solv. acetonitrile, t 30 min | solv. acetonitrile, t 35 min | solv. acetonitrile, t 40 min | solv. acetonitrile, t 50 min | solv. acetonitrile, t 60 min | solv. acetonitrile, t 70 min | solv. acetonitrile, t 80 min | solv. ethyl acetate, t 5 min | solv. t-butanol, t 5 min | solv. t-butanol, t 10 min | solv. t-butanol, t 15 min | solv. t-butanol, t 20 min | solv. t-butanol, t 25 min | solv. t-butanol, t 30 min | solv. t-butanol, t 35 min | solv. t-butanol, t 40 min | solv. t-butanol, t 50 min | solv. t-butanol, t 60 min | solv. t-butanol, t 70 min | solv. t-butanol, t 80 min
